What follows are compounds tested against mouse NPY Y5 receptor (Mus musculus (Mouse), UniProt O70342) (assay: Affinity for NPY Y5 receptor (Test Example 1-1), 125I peptide YY binding). Conditions: inhibition of 125I peptide YY binding to membranes of CHO cells expressing mouse NPY Y5 receptor.
From the text: cDNA sequence encoding mouse NPY Y5 receptor (Biochem. Biophys. Acta 1328: 83-89, 1997) was cloned in the expression vector (pME18S, Takebe et al. Mol. Cell. Biol. 8, 466-472). The obtained expression vector was transfected into CHO cells as a host according to the instruction manual using Lipofectamine reagent (Trademark, Gibco BRL Co., Ltd.). The cells that stably express NPY Y5 receptor were obtained.
The membrane samples prepared from the CHO cells expressing NPY Y5 receptor, the compound of the invention and 30,000 cpm ^125I peptide YY (60 pM of final concentration: Amersham) were incubated in the assay buffer (20 mM HEPES-Hanks buffer containing 0.1% bovine serum albumin, pH 7.4) at 25° C. for 2 hours. The membrane samples were then filtered from the mixture through a glassfilter (GF/C) presoaked with 1% polyethyleneimine. After washing with 50 mM Tris-HCl buffer (pH 7.4), radioactivity retained on the filters was determined using gamma counter. Non-specific binding was determined in the presence of 200 nM of peptide YY and the 50% inhibitory concentration (IC50 value) of the test compound for specific peptide YY binding was calculated (Inui, A. et al. Endocrinology 131, 2090-2096 (1992)).

Chain of mouse NPY Y5 receptor (O70342 whole entry): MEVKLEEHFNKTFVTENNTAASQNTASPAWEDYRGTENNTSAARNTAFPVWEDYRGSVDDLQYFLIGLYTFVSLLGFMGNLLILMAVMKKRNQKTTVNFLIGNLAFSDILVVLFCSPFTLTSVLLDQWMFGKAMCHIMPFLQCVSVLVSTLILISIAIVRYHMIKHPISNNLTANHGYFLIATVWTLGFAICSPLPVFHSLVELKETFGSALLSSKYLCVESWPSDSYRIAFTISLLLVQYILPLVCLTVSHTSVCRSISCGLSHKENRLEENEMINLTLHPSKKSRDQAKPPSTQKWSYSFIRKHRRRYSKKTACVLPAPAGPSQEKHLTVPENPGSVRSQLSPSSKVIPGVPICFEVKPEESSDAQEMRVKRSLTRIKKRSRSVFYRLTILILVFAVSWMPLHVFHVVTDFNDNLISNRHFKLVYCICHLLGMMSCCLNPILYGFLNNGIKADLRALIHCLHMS

Row | Structure (SMILES) | IC50 [nM]
1 | N#Cc1ccccc1C(=O)N[C@H]1CC[C@@H](C(=O)Nc2ccn(-c3ccccc3F)n2)CC1 [Ia-24] | 2.9
2 | C[C@@H]1CN(c2ccc(NC(=O)[C@H]3CC[C@@H](Oc4cc(Cl)ccc4C#N)CC3)cc2)C[C@H](C)O1 [Ic-12] | 1.1
3 | O=C(Nc1ccn(-c2ccccc2F)n1)[C@H]1CC[C@@H](N2c3ccccc3OS2(=O)=O)CC1 [Id-8] | 0.58
4 | N#Cc1ccccc1O[C@H]1CC[C@@H](C(=O)Nc2ccc(OC(F)F)cc2)CC1 [Ic-8] | 2.3
5 | CC(C)n1c(=O)oc2cc(NC(=O)[C@H]3CC[C@@H](Oc4cc(Cl)ccc4C#N)CC3)ccc21 [Ic-13] | 0.56
6 | CC(C)n1c(=O)oc2cc(NC(=O)[C@H]3CC[C@@H](Oc4cc(C(F)(F)F)ccn4)CC3)ccc21 [Ic-16] | 0.41
7 | CC(C)n1c(=O)oc2cc(NC(=O)[C@H]3CC[C@@H](NC(=O)c4ccccc4)CC3)ccc21 [Ia-15] | 4.5
8 | O=C(N[C@H]1CC[C@@H](C(=O)Nc2cccc(-c3ccccc3F)c2)CC1)c1ccon1 [Ia-28] | 4.1
9 | CC(C)n1c(=O)oc2cc(NC(=O)[C@H]3CC[C@@H](NC(=O)c4ccon4)CC3)ccc21 [Ia-32] | 3.3
10 | C[C@@H]1CN(c2ccc(NC(=O)[C@H]3CC[C@@H](Oc4cc(C(F)(F)F)ccc4C#N)CC3)cc2)C[C@H](C)O1 [Ic-11] | 1.8
11 | CC(C)n1c(=O)oc2cc(NC(=O)[C@H]3CC[C@@H](Oc4cc(C(F)(F)F)ccc4C#N)CC3)ccc21 [Ic-14] | 0.68
12 | O=C(Nc1ccn(-c2ccccc2F)n1)[C@H]1CC[C@@H](Nc2cccc(F)n2)CC1 [Ib-1] | 2.9
13 | O=C(N[C@H]1CC[C@@H](c2nc(-c3cccc(C(F)(F)F)c3)c[nH]2)CC1)c1ccon1 [Ia-43] | 1.8
14 | O=C(Nc1ccn(-c2ccccc2F)n1)[C@H]1CC[C@@H](Oc2cc(Cl)ccn2)CC1 [Ic-17] | 0.69
15 | O=C(N[C@H]1CC[C@@H](c2nc(-c3ccc(Cl)c(Cl)c3)c[nH]2)CC1)c1ccon1 [Ia-40] | 0.26
16 | O=C(N[C@H]1CC[C@@H](C(=O)Nc2ccn(-c3ccccc3F)n2)CC1)c1cccc(F)n1 [Ia-2] | 1.6
17 | O=C(N[C@H]1CC[C@@H](C(=O)Nc2cccc(-c3ccccc3F)c2)CC1)c1ccccc1 [Ia-14] | 4.1
18 | O=C(N[C@H]1CC[C@@H](c2nc(-c3cccc(Cl)c3)c[nH]2)CC1)c1ccon1 [Ia-42] | 3
19 | O=C(N[C@H]1CC[C@@H](C(=O)Nc2ccc(-c3ccccc3)cc2)CC1)c1ccon1 [Ia-35] | 0.65
20 | O=C(N[C@H]1CC[C@@H](C(=O)Nc2ccn(-c3ccccc3F)n2)CC1)c1cccc(Cl)n1 [Ia-4] | 3.8
21 | CC(C)n1c(=O)oc2cc(NC(=O)[C@H]3CC[C@@H](Nc4cccc(F)n4)CC3)ccc21 [Ib-4] | 1.5
22 | O=C(N[C@H]1CC[C@@H](C(=O)Nc2ccc(-c3ccccc3F)cc2)CC1)c1ccon1 [Ia-30] | 0.71
23 | C[C@@H]1CN(c2ccc(NC(=O)[C@H]3CC[C@@H](Oc4cc(Cl)ccn4)CC3)cc2)C[C@H](C)O1 [Ic-5] | 1.5
